Results on five compounds are retold here after PMC3717777 (Toxins, 2013).

“Also recorded” adds a separate entry of the source. Where two headings read alike, the source gives them in different places.

Data set [1] is described as follows: Solid phase microtitre plate binding assay with ochratoxin A-HRP. The note with it: ochratoxin A-HRP serial dilutions, PBS pH 7.4, 1.5 h, room temperature, A 450 nm; for binding of ochratoxin A-HRP, amine-coupled peptide: amine coupling (NHS/EDC); for binding of ochratoxin A-HRP, thiol-coupled peptide: thiol coupling (SPDP). From the text:
Solid phase binding assay provides a platform to test the binding capacity of the designed peptides to ochratoxin A in vitro. Each peptide sequence was immobilized to the surface of a functionally modified (R2-NH) microtitre plate via either amine coupling using N-hydroxysuccinimide (NHS)/N-(3-dimethylaminopropyl)-N'-ethylcarbodiimide (EDC) coupling chemistry or thiol coupling using a heterobifunctional crosslinker (N-Succinimidyl 3-(2-pyridyldithio) propionate (SPDP)) employing the terminal cysteine residues of the peptide sequences to allow for site-directed surface attachment. Enzyme-labelled ochratoxin A-HRP was added in a concentration-dependent manner to the immobilized peptides, and the absorbance signal (blank subtracted) was compared for both peptides and immobilization techniques, as shown in Figure 3.
To test the initial binding of the peptides with ochratoxin A, the peptides were immobilized to a (NH)-functionally modified polystyrene microtitre plate via: (1) amine-coupling using a NHS/EDC linker and (2) thiol-coupling using SPDP, a hetero-bifunctional cross-linker reagent with amine and sulfhydryl groups.
Amine coupling was performed as follows: 100 mg L^−1 of each peptide solution in 10 mM carbonate buffer pH 9.6 was incubated on the NH-wells for 30 min, then 200 mM EDC and 50 mM NHS (1:1 v/v) were added and incubated for one hour. The plates were washed using PBST and blocked using 0.1 M ethanolamine for 30 min. Thiol coupling was performed via the immobilization of 1.5 mg mL^−1 SPDP in phosphate buffer (PBS) pH 7.4 incubated for 30 min at room temperature. The peptides were added at 100 mg L^−1 in a phosphate buffer pH 8.0 and incubated for another two hours at room temperature. The plates were washed using PBST and blocked for one hour using 1 g L^−1 cysteine in 1 M NaCl and 0.1 M sodium acetate, pH 4.0.
The binding of ochratoxin A-HRP conjugate in phosphate buffer pH 7.4 was performed at decreasing serial dilutions and incubated with the immobilized peptides for 1.5 h. The zero reference was determined with ochratoxin-HRP alone on 0.1 M ethanolamine blocked wells without immobilized peptide. All incubations were performed at room temperature. Detection was performed, after washing the microtiter plates using PBST, with the chromogenic HRP-substrate TMB in ready-made solution containing hydrogen peroxide. The absorbance was read after 20 min at 450 nm.

A short description of data set [2]: Water solubility of synthesized peptides. The format is physicochemical.
In another data set the test system is BSA. The data set is described as follows: SPR (Biacore 3000) non-specific binding control with BSA alone. The note with it: immobilised peptide, BSA alone 100 mg L^−1. From the text:
(§1) To determine affinities for the peptide binding interaction, the peptides were immobilized on two adjacent flow cells onto a CM5 Biacore chip to a level of 251 RU (octapeptide) and 227 RU (13-mer peptide). This was in order to study the binding interaction between the peptides and ochratoxin A using a Biacore 3000. A commercial ochratoxin A-BSA conjugate was used as the analyte to obtain a significant signal response for a binding event. Initially, one saturating concentration of ochratoxin A-BSA conjugate (100 mg L^−1) was injected over each immobilized peptide ligand to confirm binding (Figure 4).
Immobilization methods, especially via amine coupling, can reduce the activity of the immobilized molecule and, thus, have reduced binding capacity, which can be substantially different from the theoretical binding capacity. This is a common and known problem in binding interaction analysis. […]
The binding interaction analysis of the peptide receptor with ochratoxin A was carried out on a CM5 (carboxymethylated dextran) sensor chip at 25 °C. […] Dissociation was monitored during 10 min without dissociating agents (flowing only running buffer). The kinetic parameters of the binding reactions were determined using BIAevaluation 3.2 software.
(In general: Surface plasmon resonance follows binding to a sensor surface in real time, without labels.)

Data set [3] in a line: SPR (Biacore 3000) binding of ochratoxin A-BSA to immobilised peptide or antibody. The note with it: for Kd: Biacore 3000, CM5 chip, peptide immobilised by amine coupling, ochratoxin A-BSA 0.01–100 mg L^−1, HBS-EP pH 7.4, 25 °C, 1:1 Langmuir model, estimated; for on and off rates: Biacore 3000, ochratoxin A-BSA over immobilised ligand; for on and off rates / binding affinity (in words): HBS-EP pH 7.4, 25 °C; for binding affinity (in words): Biacore 3000, ochratoxin A-BSA.
Excerpt: as §1
To establish the affinity of the interaction, decreasing ochratoxin A-BSA concentrations were injected onto the immobilized peptides surfaces (Figure 5).
The binding interaction analysis of the peptide receptor with ochratoxin A was carried out on a CM5 (carboxymethylated dextran) sensor chip at 25 °C. HBS-EP (0.01 M HEPES pH 7.4, 0.15 M NaCl, 3 mM EDTA, 0.005% Surfactant P20) was used as the running and dilution buffer. Peptides (100 mg L^−1 in 10 mM acetate buffer, pH 4.5) were immobilised using 0.4 M N-(3-dimethylaminopropyl)-N'-ethylcarbodiimide (EDC) and 0.1 M N-hydroxysuccinimide (NHS), applying amine coupling chemistry. In brief, a 1:1 mixture of NHS and EDC was injected as 5 μL min^−1 flow rate for 7 min, followed by injection of 75 µL peptide ligand (5 µL min^−1) for 15 min and blocking of residual binding sites with 1 M Ethanolamine, pH 8.3 (35 µL). To establish binding kinetics, various concentrations of ochratoxin A-BSA conjugate (0.01–100 mg L^−1, 60 µL in HBS-EP pH 7.4) were injected at 5 µL min^−1 over each immobilised peptide surface. BSA alone was injected as non-specific analyte control. Dissociation was monitored during 10 min without dissociating agents (flowing only running buffer). The kinetic parameters of the binding reactions were determined using BIAevaluation 3.2 software.

The conditions of data set [4]: combinatorial peptide-phage display library; cited from earlier work.
For data set [5] the following is noted: read-out: binding constant KD, aflatoxin B1; cited from earlier work.
For data set [6] the following is noted: read-out: binding constant KD, aflatoxin B2; cited from earlier work.
The target of the next data set is (human) albumin. The settings on record: ochratoxin A to (human) albumin, ref [45], cited from earlier work.

In general, Kd refers to a measure of binding affinity in units of concentration. Consider “N'-Gly-Pro-Ala-Gly-Ile-Asp-Gly-Pro-Ala-Gly-Ile-Arg-Cys-C' [13-mer peptide]”, for which, in data set [1], the “binding of ochratoxin A-HRP, amine-coupled peptide” value was “decreased” and the “binding of ochratoxin A-HRP, thiol-coupled peptide” value is reported as “good binding capacity”. Also, in data set [2], the water solubility result is on record as “water soluble”. Moreover, the “non-specific binding to unconjugated BSA” value with BSA is “no non-specific binding”. In data set [3], the Kd was 15.7 µM; the “on and off rates” value is “fast on and off rates; also recorded: faster on and off rates”; the “binding affinity (in words)” value is listed as “weak binding affinity”. Also, the “binding affinity (in words)” value in data set [3] (listed as 13-mer) is recorded as “weak affinity interactions”.
“N'-Cys-Ser-Ile-Val-Glu-Asp-Gly-Lys-C' [octapeptide]”: in data set [1], the “binding of ochratoxin A-HRP, amine-coupled peptide” value is recorded as “ochratoxin A-HRP binds” and the “binding of ochratoxin A-HRP, thiol-coupled peptide” value is “much higher binding signals”. The water solubility entry in data set [2] is reported as “water soluble”. The “non-specific binding to unconjugated BSA” value in the data set with BSA is on record as “no non-specific binding”. In addition, in data set [3], the Kd is 11.8 µM; the “on and off rates” value was “fast on and off rates”; the “binding affinity (in words)” value was “weak affinity interactions; also recorded: weak binding affinity”.
With N'-Ser-Asn-Leu-His-Pro-Lys-C', the Kd in data set [4] is roughly 2.9 µM.
As to Leu-Leu-Ala-Arg-NH2, the Kd in data set [5] was roughly 8.3 µM; in data set [6] it was roughly 3.4 µM.
Turning to `C[C@@H]1Cc2c(Cl)cc(C(=O)N[C@@H](Cc3ccccc3)C(=O)O)c(O)c2C(=O)O1` [ochratoxin A], the Kd was roughly 0.019 µM at (human) albumin (high affinity binding sites, read-out: KD, high affinity binding site) and roughly 1 µM at (human) albumin (weak affinity sites, read-out: KD, weak affinity site).
